Laboratory results published in patent US10918743B2, “Contrast medium formulation and related preparation method” (GUERBET, priority 2013, dated 2021).

Assay: Thermodynamic equilibrium constant for the complexation of Gd3+
Format: physicochemical
Settings: complexation of Gd^3+ by the ligand
From the text: In the particular case where M represents a gadolinium ion, for the following chemical equilibria: [drawing 3] and DOTA+Gd ? [DOTA-Gd] (equation 2) the thermodynamic equilibrium constant of equation 1 (i.e. for the complexation of Gd^3+ by the ligand of formula I') is 10^14.9 (i.e. log ([…])=14.9), while the thermodynamic equilibrium constant of equation 2 (i.e. for the complexation of Gd^3+ by DOTA) is 10^25.6 (i.e. log ([…])=25.6). Thus, the formulations according to the invention go against the teachings of document U.S. Pat. No. 5,876,695 in particular, since the complex of DOTA with the gadolinium ion is more thermodynamically stable than the active complex.

| Compound | log (Ktherm), thermodynamic equilibrium constant |
| --- | --- |
| O=C(O)CN1CCN(CC(=O)O)CCN(CC(=O)O)CCN(CC(=O)O)CC1 [DOTA, 1,4,7,10-tetraazacyclododecane-1,4,7,10-tetraacetic acid] | 25.6 |
| O=C(CCC(C(=O)O)N1CCN(C(CCC(=O)NCC(O)CO)C(=O)O)Cc2cccc(n2)CN(C(CCC(=O)NCC(O)CO)C(=O)O)CC1)NCC(O)CO (centres unmarked) [ligand of formula I′] | 14.9 |
